PMC8037814, “Polymorphic Characterization, Pharmacokinetics, and Anti-Inflammatory Activity of Ginsenoside Compound K Polymorphs” (Molecules, 2021)
Several values for one entry are separate records, joined by “and”; a condition that tells them apart may be missing. Equal entries are not always repeated.

What was measured:
[1] = DSC thermal analysis of CK polymorphs; assay type: physicochemical; settings: 20 K/min from 20 to 400 °C, dry nitrogen flow
Protocol: DSC measurements were performed on a DSC204 Phoenix calorimeter (NETZSCH, Selb, Germany) with a heating rate of 20 K/min from 20 to 400 °C. The dry nitrogen flow was about 50 mL/min. Data were analyzed using NETZSCH analysis software.

[2] = test system: carrageenan-induced acute paw inflammation; experiment: Paw swelling test induced by carrageenan in rats; assay type: in vivo, Sprague-Dawley rats; parameters: paw volume: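 right hind paw volume measured with a plethysmometer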; settings: listed as From III; for paw volume / paw edema: mean±SD of 6 rats; for edema inhibition: versus model group
How it was run: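 Rats (six per group, half of each sex) received compound at 10 or 20 mg/kg, suspended in 0.5% CMC-Na, before carrageenan challenge. Paw edema (%) = (Vn − V0)/V0 × 100 over time; inhibitory rate relative to model group, compared by t-test.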

[3] = Pharmacokinetics after oral administration of CK polymorphs in rats (20 mg/kg); assay type: in vivo, Sprague-Dawley rats; settings: for Fabs (absolute bioavailability): p.o. 20 mg/kg vs i.v. 10 mg/kg, dose-adjusted AUC ratio; for t1/2z / AUC(0–t) / AUC(0–∞) / CLz/F / Cmax / Vz/F: p.o. 20 mg/kg, 20 mg/kg
[4] = as above; assay type: in vivo, Sprague-Dawley rats; settings: p.o. 20 mg/kg, individual rats 1-3
[5] = 10 mg/kg p.o. qd 3 days, 3h after carrageenan
[6] = 10 mg/kg p.o. qd 3 days, 4h after carrageenan
[7] = 10 mg/kg p.o. qd 3 days, 5h after carrageenan
[8] = 10 mg/kg p.o. qd 3 days, 6h after carrageenan
[9] = 20 mg/kg p.o. qd 3 days, 3h after carrageenan
[10] = 20 mg/kg p.o. qd 3 days, 4h after carrageenan
[11] = 20 mg/kg p.o. qd 3 days, 5h after carrageenan
[12] = 20 mg/kg p.o. qd 3 days, 6h after carrageenan

CC(C)=CCCC(C)(OC1OC(CO)C(O)C(O)C1O)C1CCC2(C)C1C(O)CC1C3(C)CCC(O)C(C)(C)C3CCC12C [Form III, 20-O-β-D-glucopyranosyl-20(S)-protopanaxadiol]
DSC onset of the decomposition endotherm (thermodynamical stability) [1]: 255.9 °C | paw volume ([2]; 10 mg/kg p.o. qd 3 days, 0h (before carrageenan)): 1.60±0.11 | paw edema [2, 5]: 56.76±9.61% | paw volume [2, 5]: 2.50±0.06 | edema inhibition [2, 5]: 11.69% | paw edema [2, 6]: 58.19±18.49% | paw volume [2, 6]: 2.52±0.17 | edema inhibition [2, 6]: 6.69% | paw edema [2, 7]: 42.15±12.34% | paw volume [2, 7]: 2.27±0.14 | edema inhibition [2, 7]: 18.56% | paw edema [2, 8]: 30.81±14.08% | paw volume [2, 8]: 2.08±0.15 | edema inhibition [2, 8]: 21.63% | paw volume ([2]; 20 mg/kg p.o. qd 3 days, 0h (before carrageenan)): 1.63±0.12 | paw edema [2, 9]: 55.29±13.62% | paw volume [2, 9]: 2.53±0.25 | edema inhibition [2, 9]: 13.98% | paw edema [2, 10]: 48.28±7.79% | paw volume [2, 10]: 2.42±0.13 | edema inhibition [2, 10]: 22.59% | paw edema [2, 11]: 34.20±12.28% | paw volume [2, 11]: 2.18±0.15 | edema inhibition [2, 11]: 33.94% | paw edema [2, 12]: 27.94±7.14% | paw volume [2, 12]: 2.08±0.08 | edema inhibition [2, 12]: 28.94% | Fabs (absolute bioavailability) ([3]; female rats): 5.85% | t1/2z ([3]; female rats, individual rats 1-3): 2.82 h and 3.06 h and 2.56 h | AUC(0–t) ([3]; female rats, mean ± SD (n = 3)): 1869.55 ± 618.65 ng·h/mL and 1869.6 ± 618.65 ng·h/mL | AUC(0–∞) ([3]; female rats, mean ± SD (n = 3)): 1896.19 ± 604.12 ng·h/mL and 1896.2 ± 604.12 ng·h/mL | CLz/F ([3]; female rats, mean ± SD (n = 3)): 186.5 ± 50.3 mL/min/kg and 187 ± 50.3 mL/min/kg | Cmax ([3]; female rats, mean ± SD (n = 3)): 355.12 ± 79.98 ng/mL and 355.1 ± 79.98 ng/mL | Vz/F ([3]; female rats, mean ± SD (n = 3)): 44.76 ± 9.37 L/kg and 44.8 ± 9.37 L/kg | t1/2z ([3]; female rats, mean ± SD (n = 3)): 2.81 ± 0.25 h and 2.8 ± 0.25 h | Fabs (absolute bioavailability) ([3]; male rats): 3.90% | Vz/F ([3]; male rats, individual rats 1-3): 148.10 L/kg and 49.55 L/kg and 83.24 L/kg | AUC(0–t) ([3]; male rats, mean ± SD (n = 3)): 1171.83 ± 462.65 ng·h/mL and 1171.8 ± 462.65 ng·h/mL | AUC(0–∞) ([3]; male rats, mean ± SD (n = 3)): 1183.48 ± 466.08 ng·h/mL and 1183.5 ± 466.08 ng·h/mL | CLz/F ([3]; male rats, mean ± SD (n = 3)): 322.7 ± 158 mL/min/kg and 323 ± 158 mL/min/kg | Cmax ([3]; male rats, mean ± SD (n = 3)): 151.15 ± 64.45 ng/mL and 151.2 ± 64.45 ng/mL | Vz/F ([3]; male rats, mean ± SD (n = 3)): 93.63 ± 50.09 L/kg and 93.6 ± 50.1 L/kg | t1/2z ([3]; male rats, mean ± SD (n = 3)): 3.3 ± 0.58 h | AUC(0-t) ([4]; female rats): 1577.20 ng·h/mL and 2580.19 ng·h/mL and 1451.26 ng·h/mL | AUC(0-∞) ([4]; female rats): 1582.68 ng·h/mL and 2592.62 ng·h/mL and 1513.29 ng·h/mL | CLz/F ([4]; female rats): 210.7 mL/min/kg and 128 mL/min/kg and 220.3 mL/min/kg | Cmax ([4]; female rats): 263.79 ng/mL and 412.66 ng/mL and 388.92 ng/mL | Vz/F ([4]; female rats): 51.35 L/kg and 34.03 L/kg and 48.90 L/kg | AUC(0-t) ([4]; male rats): 656.21 ng·h/mL and 1550.66 ng·h/mL and 1308.63 ng·h/mL | AUC(0-∞) ([4]; male rats): 662.23 ng·h/mL and 1560.11 ng·h/mL and 1328.10 ng·h/mL | CLz/F ([4]; male rats): 503.3 mL/min/kg and 213.7 mL/min/kg and 251 mL/min/kg | Cmax ([4]; male rats): 90.26 ng/mL and 144.54 ng/mL and 218.65 ng/mL | t1/2z ([4]; male rats): 2.68 h and 3.83 h and 3.40 h
